# Reference: patent US20080045499A1, “Preferential Inhibition of Presenilin-1” (Elan Pharmaceuticals, Inc., priority 2006, published 2008)
# Like-named read-outs stand apart in the source and are kept apart here.
# Columns and labels:
# [1] = biological target: T1, Presenilin-1-comprised γ-secretase (Homo sapiens, UniProt P49768); test: Aβ1-x ELISA in Presenilin-1 transfected PS1/PS2 double knockout mouse fibroblasts; format: cell-based
# T1 construct: expressed in transfected cells; host or cells: mouse fibroblasts derived from PS1/PS2 double knockout cells, pCF vector
# From the text: (§1) A131-x represents any Aβ peptides longer than Aβ1-23, including Aβ38, Aβ40, and Aβ42, since Aβ1-x is defined operationally by an ELISA assay using proprietary antibody mAb 266 for capture and proprietary antibody mAb 3D6 for detection. The epitope for mAb266 is Aβ16-23, and the epitope for mAb 3D6 is Aβ1-5. […] Aβ40 ELISA employed antibodies mAb 266 as capture and 2G3 (specific for Ab40) as detection, respectively. Furthermore, Aβ42 ELISA employed antibodies mAb 266 as capture and 21F12 as detection, respectively. Hybridomas producing antibodies against Aβ16-23 were generated by standard murine fusion procedures as detailed in Kohler and Milstein (Nature 256:495 1975) and U.S. Pat. No. 4,666,829 which are hereby incorporated by reference in their entireties. See also “Detailed Description” herein. Briefly, two BALB/c mice immunized with Aβ13-28 conjugated to 2C-11 (a T-cell receptor monoclonal antibody) were sacrificed and the spleens removed. Mixed splenocytes were obtained by pressing the spleens through a 30 mesh stainless steel screen. These were fused with P3X63Ag8 murine myeloma cells (aminopterin sensitive) at a fusion ratio of 10:1 in 35% polyethylene-glycol. These cells were plated out in 96 well tissue culture plates in the presence of 2×10^6 thymocytes/ml. Hybridomas were selected for by growing the cells in the presence of aminopterin poisoned Dulbecco's modified Eagle's media augmented with hypoxanthine, thymine and 10% fetal bovine serum. Hybridomas were screened for reactivity against Aβ13-28 and AAP protein via ELISA. Positive clones were sub-cloned twice. Aliquots of the clones were frozen and stored in liquid nitrogen. Supernatants from positive clones were produced in large quantities for further purification of monoclonal antibodies.
# (§2) For ELISA assays, each well of 96-well ELISA plates was coated with 100 μl of 10 μg/ml 266 in Well Coating Buffer (pH 8.5) at 4 degrees overnight, and blocked with 0.25% human BSA solution at 25 degrees for 120 minutes. The plate can be used directly without wash, after removing blocking solution.
# (§3) ELISA assays were performed at room temperature. Fifty μl of conditioned medium from overnight culture of transfected cells, with or without gamma secretase inhibitors, were added to each well of ELISA plates, and incubated for 1 hour. After washing plates with Tris-buffered saline (TBS) plus 0.05% Tween-20, 50 μl biotinylated 3D6 antibody at 0.5 μg/ml was added to each well and incubate for 45 minutes. […] Next, plates were washed with Tris-buffered saline (TBS) plus 0.05% Tween-20, and 50 μl substrate (1-step slow TMB-Elisa, Pierce, Woburn, Mass., USA, catalogue number: 34024) was added to each well and incubated for 15 min. Finally, substrate reactions were terminate by adding to each well 15 ul 2 NH2SO4, and OD readings were obtained on SpectraMax Plus (Molecular Devices, Sunnyvale, Calif., USA). The Aβ concentration of samples was then obtained by comparing sample OD readings to those of standards.
# (§4) EC50 values were derived by curve fitting of Aβ1-x levels, for samples treated with various concentrations of gamma secretase inhibitors, with XLfit software program (IDBS, Alameda, Calif., USA). Differences in EC50 values obtained for Presenilin-1 transfected cells and Presenilin-2 transfected cells exposed to a test compound served as an indicator of differential inhibition.
# (§5) Transfected mouse fibroblasts derived from the PS1/PS2 double knockout cells are grown at 37 degree under 10% CO2 in Dulbecco's modified Eagle's medium (DMEM) containing 2-10% fetal bovine serum (FBS) and 100 μg/ml penicillin/streptomycin (Pen/Strp) (Invitrogen Corporation, Carlsbad, Calif., USA).
# (§6) Cell culture medium is then removed from the transfected cell lines and analyzed for Aβ1-x levels by ELISA assay, as described in Example 1. ELISA assays are performed using ELISA plates coated with the mAb 266 to capture Aβ peptides and then by detecting Aβ peptides with biotinylated mAb 3D6.
# [2] = biological target: T2, Presenilin-2-comprised γ-secretase (Homo sapiens, UniProt P49810); test: Aβ1-x ELISA in Presenilin-2 transfected PS1/PS2 double knockout mouse fibroblasts; format: cell-based; details: for inhibition at 10 µM: compound concentration of 10 uM, estimated from the inhibition curve
# T2 construct: expressed in transfected cells; host or cells: mouse fibroblasts derived from PS1/PS2 double knockout cells, pCF vector
# From the text: as §1, §2, §3, §4, §5, §6
# [3] = test system: Presenilin-1-comprised γ-secretase relative to Presenilin-2-comprised γ-secretase; test: PS1/PS2 selectivity: ratio of EC50 in Presenilin-2 and Presenilin-1 transfected cells; format: cell-based, human; details: for PS2/PS1 EC50 ratio: EC50 of Presenilin-2 transfected cells over Presenilin-1 transfected cells
# From the text: as §4
# Cell culture medium is then removed from the transfected cell lines and analyzed for Aβ1-x levels by ELISA assay, as described in Example 1. ELISA assays are performed using ELISA plates coated with the mAb 266 to capture Aβ peptides and then by detecting Aβ peptides with biotinylated mAb 3D6. EC50 values are derived for all of the test compounds. Differences in EC50 values obtained for Presenilin-1 transfected cells and Presenilin-2 transfected cells exposed to a test compound serve as an indicator of differential inhibition.
# For example, several tested compounds are sulfonamide compounds, while several are non-sulfonamide compounds. The ratio of the EC50 value obtained for Presenilin-2 transfected cells and Presenilin-1 transfected cells (indicated in the last column of Table I) indicates the degree to which the test compound is capable of preferentially inhibiting Presenilin-1. […] In Table 2, the values shown in columns A, B and C are EC50 values (nM). Where inhibition was very low, EC50 values were not generated by the program; thus EC50 values are not provided. Rather, percent of inhibition was estimated based on the inhibition curve generated by the program. Percentages indicate percentage inhibition at a compound concentration of 10 uM. […]
# [4] = test system: 293sw; test: 293sw IC50 of gamma-secretase inhibitors; format: cell-based
# [5] = column A, Aβ1-x, Presenilin-1 transfected cells, overnight, read-out: PS1 EC50 (nM) A
# [6] = column B, Aβ1-x, Presenilin-1 transfected cells, overnight, read-out: PS1 EC50 (nM) B
# [7] = column A, read-out: PS2 percentage inhibition, column A
# [8] = column B, read-out: PS2 percentage inhibition, column B
# [9] = column A, Aβ1-x, Presenilin-2 transfected cells, overnight, read-out: PS2 EC50* (nM) A
# [10] = column B, Aβ1-x, Presenilin-2 transfected cells, overnight, read-out: PS2 EC50* (nM) B
# [11] = mean values from 2 independent experiments (FIG. 11)
"EC50 [1, 5]","EC50 [1, 6]","inhibition at 10 µM [2, 7]","inhibition at 10 µM [2, 8]",PS2/PS1 EC50 ratio [3],"EC50 [2, 9]","EC50 [2, 10]",Structure (SMILES),IC50 [4],other results
228 nM,425 nM,45%,50%,˜30,,,COc1ccc(CN(C2CCCCNC2=O)S(=O)(=O)c2ccc(Cl)cc2)cc1OC (stereo not drawn),,
385 nM,364 nM,47%,48%,˜26,,,COc1ccc(CN([C@@H](CO)CC(C)C)S(=O)(=O)c2ccc(Cl)cc2)cc1OC,123 nM,
49 nM,48 nM,,,10,606 nM,404 nM,COc1ccc(CN(C2CCCCC2C)S(=O)(=O)c2ccc(Cl)cc2)cc1OC (stereo not drawn),55 nM,
1410 nM,928 nM,26%,15%,>10,,,CCCCN([C@@H]1CCCCNC1=O)S(=O)(=O)c1ccc(Cl)cc1,192 nM,
370 nM,263 nM,47%,44%,˜30,,,O=C1NCCCC[C@H]1N(Cc1cnc(N2CCCCC2)s1)S(=O)(=O)c1ccc(Cl)cc1,121 nM,
2170 nM,1980 nM,1%,0%,>10,,,C/C(=C\c1ccccc1)CN([C@@H]1CCNC1=O)S(=O)(=O)c1ccc(Cl)cc1,337 nM,
136 nM,161 nM,,,22,3000 nM,3460 nM,COc1ccc(CN(C2CC(C)CCC2C)S(=O)(=O)c2ccc(Cl)cc2)cc1 (stereo not drawn),176 nM,
46 nM,65 nM,,,61,4000 nM,2780 nM,O=C1NCCCC[C@H]1N(C/C=C/c1cccnc1)S(=O)(=O)c1ccc(Cl)cc1,42 nM,
1390 nM,787 nM,,,4,5860 nM,3320 nM,CCC(C)N(C(C)CC)S(=O)(=O)c1ccc(Cl)nc1 (stereo not drawn),388 nM,
21 nM,17 nM,,,12,223 nM,247 nM,C[C@H](c1ccc(F)cc1CCCC(=O)O)N(c1cc(F)ccc1F)S(=O)(=O)c1ccc(Cl)cc1 [reference compound],,

# More lines, now with the values behind:
Structure (SMILES),"EC50 [1, 5]","EC50 [1, 6]","inhibition at 10 µM [2, 7]","inhibition at 10 µM [2, 8]",PS2/PS1 EC50 ratio [3],"EC50 [2, 9]","EC50 [2, 10]",IC50 [4],other results
O=C1NCCCC[C@H]1N(CCCN1C(=O)c2ccccc2C1=O)S(=O)(=O)c1ccc(Cl)cc1,3720 nM,6960 nM,28%,4%,>10,,,221 nM,
O=C1NCCCC[C@H]1N(Cc1ccc(Br)cc1)S(=O)(=O)CC(F)(F)F,1280 nM,686 nM,20%,19%,>10,,,308 nM,
CSc1ncccc1-c1nc(CN([C@@H]2CCCCNC2=O)S(=O)(=O)c2ccc(Cl)cc2)no1,212 nM,116 nM,,,11,2100 nM,2580 nM,112 nM,
C[C@H](NC(=O)c1ccc(CN([C@@H]2CCCCNC2=O)S(=O)(=O)c2ccc(Cl)cc2)cc1)c1ccccc1,143 nM,139 nM,,,4,465 nM,777 nM,,
C[C@H](NC(=O)[C@@H](O)c1cc(F)cc(F)c1)C(=O)N[C@@H]1C(=O)N(C)c2ccccc2-c2ccccc21,,,,,,,,0.064 nM,
COc1ccc(CN([C@H]2CCCCNC2=O)S(=O)(=O)c2ccc(Cl)cc2)cc1OC,,,,,,,,10000 nM,"EC50 ([1]; column A, bound given in μM, read-out: PS1 EC50 A): > 10000 nM; EC50 ([1]; column B, bound given in μM, read-out: PS1 EC50 B): > 10000 nM; EC50 ([2]; column A, bound given in μM, read-out: PS2 EC50 A): > 10000 nM; EC50 ([2]; column B, bound given in μM, read-out: PS2 EC50 B): > 10000 nM"
O=C1NCCCC[C@H]1N(Cc1cc2ccccc2o1)S(=O)(=O)c1ccc(Cl)cc1,30 nM,63 nM,,,46,2420 nM,1880 nM,,"EC50 ([1]; column C, Aβ1-x, Presenilin-1 transfected cells, overnight, read-out: PS1 EC50 (nM) C): 50 nM; EC50 ([2]; column C, Aβ1-x, Presenilin-2 transfected cells, overnight, read-out: PS2 EC50* (nM) C): 2380 nM"
"C[C@H](NC(=O)Cc1cc(F)cc(F)c1)C(=O)N[C@H](C(=O)OC(C)(C)C)c1ccccc1 [DAPT, reference compound]",,,,,,,,,"fold more selective for PS2 [3, 11]: 2 fold"
"CC(C)C[C@H](NC(=O)[C@H](Cc1ccccc1)C[C@@H](O)[C@H](Cc1ccccc1)NC(=O)OC(C)(C)C)C(=O)N[C@@H](Cc1ccccc1)C(N)=O [L-685,458, reference compound]",,,,,,,,,"fold more selective for PS1 [3, 11]: ~3 fold"
